Here are results for 1 compound from patent publication US7786152B2, “Compound” (priority 2002, dated 2010).

Assay [1] has as its target T1, Human 11βHSD1 (Homo sapiens, UniProt P28845).
T1 construct: the enzyme source, native hepatic enzyme compared to recombinant enzyme; tissue XenoTech H0610/Lot 0210078; host or cells: human hepatic microsomes
Kind of assay: 11β HSD1 cortisol radioimmunoassay (RIA) with human hepatic microsomes. The assay is classed as biochemical. Conditions: RIA format; Lineweaver-Burke; Buffer 3, 10 μg/well microsomal protein, 30 min; read-out: apparent Km. As to the method:
Biological Assay Development Using Human 11β-Hydroxysteroid Dehydrogenase Type 1. Standard Operating Procedure for the 11β-Hydroxysteroid Dehydrogenase Type 1 Cortisol Radioimmunoassay. 11β HSD1 Cortisol RIA
Enzyme assay buffer: 30 mM Tris-HCL, pH 7.2 containing 1 mM EDTA
Antibody binding buffer: 50 mM Tris-HCL, pH 8, containing 0.1 M NaCl and 0.1% gelatin
Dilute into assay buffer 1 in 25. Also dilute neat DMSO 1 in 25 into assay buffer for controls.
Dilute this 1 in 50 into assay buffer.
Prepare NADPH as a 1.8 mg/ml solution in assay buffer.
Mix these 3 solutions 1:1:1 to make a solution of sufficient volume for 25 μl additions to each sample. Add 0.5 μCi tritiated cortisone per 25 μl and mix the solution well.
Microsome preparation: Dilute stock 20 mg/ml solution 1 in 100 with assay buffer.
Dextran coated charcoal preparation: Make a 20 mg/ml solution in antibody binding buffer and chill on ice.
Enzyme assay: To a u-bottom polypropylene 96 well plate add:
25 μl compound dilution or diluted DMSO to controls, NSB's and blanks
10 μl 1 mM GA in DMSO (enzyme stop solution) to blanks
25 μl substrate mixture to all samples
50 μl diluted microsomes to all samples
Incubate plate for 30 min at 37° C. shaking
Add 10 μl enzyme stop solution to all wells except the blanks
Add 100 μl antibody solution to all wells except the NSB's, add antibody binding buffer to these wells
Incubate at 37° C. for 1 h
Chill plate on ice for 15 min
Add 50 μl/well charcoal solution and mix with an 8-channel pipette (4-5 aspirations)
Centrifuge at 4° C., 2000×g for 15 min
Transfer 100 μl supernatant into an Optiplate, also add 25 μl substrate mixture to 2 empty wells to indicate counting efficiency
Add 200 μl Microscint-40 to all wells and count on a Topcount
The 11β HSD1 enzyme assay was carried out following the standard operating procedure described above in u-bottom polypropylene 96 well plates or 1.5 ml Eppendorf tubes as indicated for each experiment. Subsequent to stopping the enzyme reaction, 100 μl antibody prepared in buffer 3 unless otherwise indicated was added to test samples and 100 μl buffer 3 was added to the NSB samples. The samples were incubated for 1 hour at 37° C. and the chilled on ice for 15 mins. Dextran coated charcoal (50 μl/sample) prepared to the indicated concentration in buffer 3 was added and the samples were mixed (vortex for tubes and aspiration 5 times with an 8-channel pipette for 96 well plates) and chilled for a further 10 min. The samples were centrifuged at 2000×g for 15 min at 4° C. to pellet the charcoal. Aliquots of the supernatant (100 μl) were transferred to an Optiplate and counted on the Topcount in 150-200 μl Microscint 40. In some experiments, aliquots of supernatant were transferred to scintillation vials and counted on the Tricarb LSC in 5 ml Ultima Gold scintillant.
Substrate saturation was examined. The enzyme assay was carried out exactly described in the methods section, in Buffer 3 with 10 μg/well microsomal protein and with [cold cortisone] as indicated. [3H]-cortisone was 0.5 μCi/sample throughout. The reaction was stopped after 30 min by the addition of 10 μl stop solution. The RIA was carried out exactly as indicated in the methods section.
It is reported that DMSO can both increase and reduce microsomal enzyme activity, depending on the concentration, presumably due to effects on the microsomal membranes.

Assay [2] concerns the target T2, human hepatic microsomal 11β-HSD1 (Homo sapiens, UniProt P28845).
T2 construct: the enzyme source, native hepatic enzyme compared to recombinant enzyme; tissue XenoTech H0610/Lot 0210078; host or cells: human hepatic microsomes
Put plainly: 11β HSD1 TLC format assay with human hepatic microsomes. The assay is classed as biochemical. Conditions: Lineweaver-Burke, 10 μg microsomal protein, 30 minutes at 37° C., read-out: apparent Km for cortisone.
Method: 11β-HSD1 activity in rat and human hepatic microsomes was evaluated, to determine the minimum microsomal protein concentrations required for measurement of enzyme activity. […] The assay was performed in Buffer 2 and the cortisone concentration used was 2 μM containing 0.5 μCi [^3H]-cortisone per incubation. Microsomes were tested at concentrations ranging from 50 μg to 400 μg protein per incubation in a final incubation volume of 100 μl in glass tubes. Samples were incubated for 1 h in a shaking water bath at 37° C. and the assay was stopped by addition of 1 ml ethyl acetate. To correct for recovery, 50 μl [^14C]-cortisol was added to the samples followed by 200 μl 0.05% CaCl2. The samples were vortex mixed and centrifuged as described above. The upper organic phase was removed and dried down, and the residue dissolved in 100 μl methanol and 50 μl aliquots were spotted onto TLC plates, which were run as described above. Samples were counted on a TriCarb liquid scintillation counter using a dual label programme. Recovery efficiency was determined from the DPM obtained in 50 μl [^14C]-cortisol solution, which was counted with the samples.
Lower human microsome protein concentrations were evaluated; 3.7 μg to 100 μg per sample. The time course of activity was also determined, from 0 to 60 minutes at 37° C. The extraction conditions were as described above. […]

T2 sequence (P28845 whole entry): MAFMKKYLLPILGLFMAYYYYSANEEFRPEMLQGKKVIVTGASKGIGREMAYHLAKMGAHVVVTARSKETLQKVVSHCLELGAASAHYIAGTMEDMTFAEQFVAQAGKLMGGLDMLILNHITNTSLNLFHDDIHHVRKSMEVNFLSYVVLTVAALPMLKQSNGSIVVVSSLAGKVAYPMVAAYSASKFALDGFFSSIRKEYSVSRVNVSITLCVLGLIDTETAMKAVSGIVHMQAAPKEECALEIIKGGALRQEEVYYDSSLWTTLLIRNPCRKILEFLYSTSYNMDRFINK
T1 sequence (P28845 whole entry): as above

Turning to `C[C@]12CCC(=O)C=C1CC[C@@H]1[C@@H]2C(=O)C[C@@]2(C)[C@H]1CC[C@]2(O)C(=O)CO` [cortisone, reference compound], the Km in assay [1] turned out to be 700 nM; in assay [2], 660 nM.

Broadly, the Km is the substrate concentration at which the rate is half of its maximum.
